Data as given in patent US8354381B2, “Peptide compositions for oral care systems” (E I du Pont de Nemours and Company, priority 2009, dated 2013).
Where no end group is shown, it is not given here. The star is where a group is joined. Biotin = O=C1N[C@H]2[C@H](CS[C@H]2CCCCC(=O)*)N1

System: pellicle coated bovine enamel
Test: Phage ELISA on pellicle coated bovine enamel (Example 6)
Assay type: binding, human
Conditions: 10^11 pfu phage, 30 min in vivo pellicle on bovine enamel, normalized to an internal control
Description: A total of 29 selected phage candidates from Table 5 were used in phage ELISA Experiment to determine binding affinity and coverage of each phage on pellicle substrates. Purified phage lysates were used for binding to pellicle coated bovine enamel using an anti-M13 phage antibody conjugated to horseradish-peroxidase, followed by the addition of chromogenic agent TMB. The plates were read at A450 nm.
The wells were filled with 1 mL of 10^11 pfu purified phage stock which was prepared by diluting in blocking buffer. […] The non-binding phage was removed by washing 5 times with PBST. […] The conjugate solution was removed and was washed 3 times with PBST.

In the case of “TTYHYKNIYQESYQQRNPAV (Synthetic oral-surface binding peptide) [DenP3]”, the “O.D.450 (normalized)” value was 2.495.

System: not listed separately
Test: Phage ELISA, bovine enamel-binding assay
Conditions: over 10^10 pfu phage, unpolished bovine enamel, A450
Description: A total of 11 selected phage candidates (Example 3) was used in a phage ELISA experiment. Purified phage lysates were used for binding to the enamel blocks using an anti-M13 phage antibody conjugated to horseradish-peroxidase, followed by the addition of chromogenic agent TMB. The plates were read at A450 nm.
For each phage candidate to be tested, the polished and unpolished enamel blocks were incubated for 1 h at room temperature with 200 μL of blocking buffer, consisting of 2% non-fat dry milk (Schleicher & Schuell, Inc.) in TBS. […] The tube was rinsed 6 times with wash buffer consisting of TBST-0.05%. The wells were filled with 200 μL of TBST-0.5% containing 1 mg/mL BSA and then 10 μL (over 10^10 pfu) of purified phage stock was added. The samples were incubated at room temperature for 60 min with slow shaking. The non-binding phage was removed by washing 6 times with TBST-0.5%. […] The conjugate solution was removed and was washed 6 times with TBST-0.5%. […] BoEn P means bovine polished enamel and BoEn means bovine enamel.

Point of comparison: “YSETPNDQKPNPHYKVSGTK (Synthetic oral-surface binding peptide) [BoEn 10]”, O.D.450 3.942. Against it:
- AANPHTEWDRDAFQLAMPPK (Synthetic oral-surface binding peptide) [BoEn 1] — lower, 1.402
- LNDQRKPGPPTMPTHSPAVG (Synthetic oral-surface binding peptide) [BoEn 5] — lower, 0.944
- NTCATSPNSYTCSN (Synthetic oral-surface binding peptide) [BoEn 6] — lower, 2.38
- SDCTAGLVPPLCAT (Synthetic oral-surface binding peptide) [BoEn 7] — lower, 0.892
- VGTMKQHPTTTQPPRVSATN (Synthetic oral-surface binding peptide) [BoEn 9] — lower, 0.568

System: pellicle coated enamel substrates
Test: not given
Conditions: 20 μM biotinylated peptide, streptavidin-HRP, normalized to DenP03, three replicates
Description: A total of 20 synthetic peptides were manufactured using sequences obtained from Table 6. Peptides were obtained from SynBioSci Corp. (Livermore, Calif.) and included an additional sequence (SSRP; SEQ ID NO: 118) at the N-terminus and biotin labeled lysine at the C-terminus.
Enamel substrates were cut into approximately 7 mm squares and mounted on wax mounting for incubation in the mouth for 30 min to form a pellicle coated surface. The pellicle coated enamel substrates were removed from the wax backing and placed in well plates with the pellicle surface exposed as in Example 5. Each pellicle coated substrate was incubated for 1 h at room temperature (˜22° C.) with 1 mL of blocking buffer, consisting of 1 mg/mL BSA in PBST (Pierce BUPH™ #28372 with 0.1% TWEEN® 20). The blocking buffer was removed by aspirating the liquid out of each well. The tube was rinsed 2 times with wash buffer consisting of PBST. The wells were filled with 500 μL of 20 μM peptide solution which was prepared by diluting in blocking buffer. The samples were incubated for 30 min with slow shaking at 37° C. The non-binding peptide was removed by washing 6 times with PBST. Then, 500 μL of horseradish peroxidase/streptavidin conjugate (Pierce #22127), diluted 1:2000 in PBST, was added and incubated for 1 h at room temperature (˜22° C.). The conjugate solution was removed and was washed 4 times with PBST.
Each enamel substrate was removed from the well and washed again in a 15-mL test tube with 10 mL of PBST. Each enamel substrate was then mounted in a clean well plate with only the enamel surface exposed. A 1:1 solution of TMB substrate and H2O2 (200 μL) was added to each well and the color was allowed to develop for between 10 to 20 min, typically for 15 min, at room temperature (˜22° C.). Then, 100 μL of solution from each well was transferred to a 96 well reading plate containing stop solution (100 μL of 2 M H2SO4) in each well. The A450 was measured using a microplate spectrophotometer (Molecular Devices, Sunnyvale, Calif.). […] Each sequence was tested with three replicate enamel coated pellicle substrates.

Point of comparison: “SSRPVNPNWVETQALHQPPGNTK(Biotin) [DenP20-A]”, “O.D.450 (normalized)” value 0.590. Against it:
- SSRPEFPYYNDNPPNPERHTLRK(Biotin) [DenP7-A] — lower, 0.356
- SSRPELDHDSRHYMNGLQRKVTK(Biotin) [DenP15-A] — lower, 0.460
- SSRPFDGIGLGTATRHQNRK(Biotin) [DenP12-A] — lower, 0.475
- SSRPGPQHVLMQDTHQGYAFDNK(Biotin) [DenP16-A] — lower, 0.309
- SSRPHDPNHLTHQARTIYRNANHTK(Biotin) [DenP23-A] — higher, 0.850
- SSRPIYPNESMSTSNVRGPYHPK(Biotin) [DenP22-A] — lower, 0.354
- SSRPNGNNHTDIPNRSSYTGGSFAK(Biotin) [DenP1-A] — lower, 0.154
- SSRPQAAQVHMMQHSRPTTK(Biotin) [DenP13-A] — higher, 0.699
- SSRPQVPDYLSPTHQKKAFLEIPTK(Biotin) [DenP29-A] — lower, 0.468
- SSRPSEARARTFNDHTTPMPIIK(Biotin) [DenP14-A] — lower, 0.269
- SSRPTMTNHVYNSYTEKHSSTHRSK(Biotin) [DenP2-A] — lower, 0.273
- SSRPTTGSSSQADTSASMSIVPAHK(Biotin) [DenP17-A] — lower, 0.143
- SSRPTYQGVPSWPAVIDDAIRRK(Biotin) [DenP19-A] — higher, 0.712
- SSRPVEPATKNMREARSSTQMRRIK(Biotin) [DenP4-A] — higher, 0.803
- SSRPYLLPKDQTTAPQVTPIVQHKK(Biotin) [DenP5-A] — lower, 0.462

System: pellicle coated bovine enamel
Test: Phage ELISA of brushed 8 hr pellicle candidates, screened with 30 min in vivo pellicle (Example 8)
Assay type: binding, human
Conditions: 10^11 pfu phage, 30 min in vivo pellicle on bovine enamel, normalized to DenP3
Description: A total of 18 selected phage candidates were used in a phage ELISA Experiment. Purified phage lysates were used for binding to pellicle coated bovine enamel using an anti-M13 phage antibody conjugated to horseradish-peroxidase, followed by the addition of chromogenic agent TMB. The plates were read at A450 nm.
The wells were rinsed 2 times with wash buffer consisting of PBST. The wells were filled with 1 mL of 10^11 pfu purified phage stock which was prepared by diluting in blocking buffer. […] The non-binding phage was removed by washing 5 times with PBST. Then, 500 μL of horseradish peroxidase/anti-M13 antibody conjugate (Amersham USA, Piscataway, N.J.), diluted 1:500 in the blocking buffer, was added and incubated for 45 min at room temperature. The conjugate solution was removed and was washed 5 times with PBST.

Point of comparison: “GYGQYVSQQTWAHSNK (Synthetic oral-surface binding peptide) [DenP115]”, “O.D.450 (normalized)” value 0.501. Against it:
- AIEYQHSATTPWTMRTRLPP (Synthetic oral-surface binding peptide) [DenP101] — lower, 0.467
- DGYKLQTSLDWQMWNP (Synthetic oral-surface binding peptide) [DenP111] — higher, 1.051
- EFYPFAEVPPEKSGIGRQVF (Synthetic oral-surface binding peptide) [DenP102] — higher, 0.520
- FPSKWYNHHRHITGHV (Synthetic oral-surface binding peptide) [DenP112] — lower, 0.413
- GGMGALESYRQWNHLA (Synthetic oral-surface binding peptide) [DenP113] — higher, 1.348
- GINKGQRPPWESWHEN (Synthetic oral-surface binding peptide) [DenP114] — higher, 0.703
- GVHQYSRPTVPSYLWTSGQH (Synthetic oral-surface binding peptide) [DenP103] — higher, 0.879
- GYQPHYVDHTIGWQPMIRPN (Synthetic oral-surface binding peptide) [DenP104] — higher, 0.790
- HDHLSWWGQFDRQNLL (Synthetic oral-surface binding peptide) [DenP116] — higher, 1.055
- MPGHQESIKVQNWNRV (Synthetic oral-surface binding peptide) [DenP117] — lower, 0.433
- NLHSPWPSHAAHHWST (Synthetic oral-surface binding peptide) [DenP118] — higher, 0.641
- NQQMKLVPQHWHRAQP (Synthetic oral-surface binding peptide) [DenP119] — higher, 1.051
- QFNQTSHSFMHGTSGYVPGK (Synthetic oral-surface binding peptide) [DenP105] — lower, 0.470
- SFSWHRGDWELGHQSKTMGM (Synthetic oral-surface binding peptide) [DenP106] — higher, 1.524
- SMWHDITKRYRNPSEMVSAY (Synthetic oral-surface binding peptide) [DenP107] — higher, 0.726
- THGNKHQSWTYPSEINHKNY (Synthetic oral-surface binding peptide) [DenP108] — higher, 1.149
- TTYHYKNIYQESYQQRNPAV (Synthetic oral-surface binding peptide) [DenP3] — higher, 1.000
- WHEPHQFSGENTDYSSSMGT (Synthetic oral-surface binding peptide) [DenP109] — higher, 0.716
